Consider 15 molecules from US11964950B2, “Arylamide derivative having antitumor activity” (priority 2020, dated 2024).

Each structure is given as a SMILES string. Some results are limits rather than exact numbers.

For orientation: IC50 means the concentration that gives 50% inhibition. A lower IC50 goes with greater potency in that assay. For orientation: microsomal CLint means the capacity of the preparation to metabolise the compound, expressed as a volume cleared per time. A low value points to slow turnover.

In data set [1] the test system is A549 human lung cancer cells. Put plainly: Cell proliferation-inhibiting activity, A549 (CellTiter-Glo, ATP in viable cells). Format: cell-based. As to conditions: A549, 96 h, Table 3, 4 days culture. Here is the method:
(§1) The cell proliferation-inhibiting activity of the compounds listed in Table 3 below was evaluated by measuring the amount of ATP in viable cells as described below.
(§2) The test compound was serially diluted with DMSO and then diluted 25-fold with Ca^2+, Mg^2+-free phosphate-buffered saline, and was then dispensed into a 96-well plate at 5 μL per well. A cell suspension containing the below indicated concentration of A549, Calu-6 or NCI-H2122 human lung cancer cells (all obtained from ATCC) was prepared using the below indicated medium with the addition of 10% fetal bovine serum (Sigma). The cell suspension was dispensed into the test compound-added plate at 95 μL per well and cultured in a 5% carbon dioxide gas incubator at 37° C. After 4 days, 80 μL of CellTiter-Glo (registered trademark) (Promega Corp.) was added to each well and the bioluminescence was measured with a fluorescent plate reader.
A549: Dulbecco's Modified Eagle's Medium (Sigma); 2000 cells/95 μL

The test system of data set [2] is Calu-6 human lung cancer cells. Kind of data set: Cell proliferation-inhibiting activity, Calu-6 (CellTiter-Glo, ATP in viable cells). Format: cell-based. The conditions noted are these: Calu-6, 96 h, Table 3, 4 days culture. Here is the method: as §1, §2
Calu-6: Eagle's Minimum Essential Medium (Sigma); 4000 cells/95 μL
(In ATP-based viability assays light output follows the ATP content of the culture.)

The test system of data set [3] is NCI-H2122 human lung cancer cells. Kind of data set: Cell proliferation-inhibiting activity, NCI-H2122 (CellTiter-Glo, ATP in viable cells). Format: cell-based. As to conditions: NCI-H2122, 96 h, Table 3, 4 days culture. The procedure:
as §1, §2

Data set [4] is described as follows: Human liver microsome stability. Format: in vitro ADME. The conditions noted are these: NADPH, 37° C.; for microsomal CLint at 0.99 µM: human liver microsomes (XENOTECH), pH 7.4, hepatic intrinsic clearance; for CLint: hepatic intrinsic clearance, human liver microsomes. The procedure:
There were dispensed 400 μL of 1 mg/mL human liver microsomes (XENOTECH)/0.1 M potassium phosphate buffer (pH 7.4) into each well of a 96-well plate. A DMSO solution (4 μL) of 200 μM test compound was then added, and incubation was conducted until reaching 37° C. To this reaction mixture (200 μL) there was added a solution (200 μL) containing 2 mM NADPH (ORIENTAL YEAST)/0.1 M potassium phosphate buffer (pH 7.4) that had been incubated at 37° C. At 0 min, 5 min, 15 min or 30 min after addition, the reaction mixture (50 μL) was added to acetonitrile (100 μL) to stop the metabolic reaction. After the metabolic reaction was stopped, a 1 μM warfarin aqueous solution (50 μL) was added to each reaction mixture as an internal standard. The reaction mixture was filtered and analyzed by LC/MS/MS (LC: NEXERA by Shimadzu; MS: 4000Q trap by ABSciex; column: Ascentis Express C18 HPLC column (5 cm×2.1 mm, 2.7 μm); ionization method: electrospray ionization). The percent remaining relative to the amount of test compound at 0 min was calculated from the obtained peak area ratio of the test compound to internal standard. The elimination rate constant (ke) was calculated from the incubation time and percent remaining using the primary elimination rate equation, and the hepatic intrinsic clearance (CLint) was calculated using the formula shown below. CLint (μL/min/mg)=ke (min^−1)/human liver microsome concentration (mg protein/μL)

As for `NC(=O)c1cc(Cc2ccnc(NS(=O)(=O)NC3CC3)c2F)c(F)cc1Nc1ccc(I)cc1F` [1-3, 5-[[2-(Cyclopropylsulfamoylamino)-3-fluoropyridin-4-yl]methyl]-4-fluoro-2-(2-fluoro-4-iodoanilino)benzamide], the figures for the IC50 in data set [1], in data set [2] and in data set [3] were 32 nM, 120 nM and 21 nM, respectively.

Consider `CNS(=O)(=O)Nc1nccc(Cc2cc(C(=O)NC3CC3)c(Nc3ccc(I)cc3F)c(F)c2F)c1F` [A-2, N-cyclopropyl-3,4-difluoro-2-(2-fluoro-4-iodoanilino)-5-[[3-fluoro-2-(methylsulfamoylamino)pyridin-4-yl]methyl]benzamide], for which the figures for the IC50 in data set [1], in data set [2] and in data set [3] were 1 nM, 2 nM and 0.1 nM, respectively.

In the case of `COCC1(NS(=O)(=O)Nc2nccc(Cc3cc(C(N)=O)c(Nc4ccc(I)cc4F)c(F)c3F)c2F)CC1` [A-16, 3,4-Difluoro-2-(2-fluoro-4-iodoanilino)-5-[[3-fluoro-2-[[1-(methoxymethyl)cyclopropyl]sulfamoylamino]pyridin-4-yl]methyl]benzamide], the microsomal CLint at 0.99 µM in data set [4] is 47 µL/min/mg.

For the molecule `CC1(NS(=O)(=O)Nc2nccc(Cc3cc(C(N)=O)c(Nc4ccc(I)cc4F)c(F)c3F)c2F)CC1` [A-23, 3,4-Difluoro-2-(2-fluoro-4-iodoanilino)-5-[[3-fluoro-2-[(1-methylcyclopropyl)sulfamoylamino]pyridin-4-yl]methyl]benzamide], the “CLint” value in data set [4] is under 1 µL/min/mg.

As for `CNS(=O)(=O)Nc1cccc(Cc2cc(C(=O)NC3CC3)c(Nc3ccc(C4CC4)cc3F)c(F)c2F)c1F` [D-15, N-Cyclopropyl-2-(4-cyclopropyl-2-fluoroanilino)-3,4-difluoro-5-[[2-fluoro-3-(methylsulfamoylamino)phenyl]methyl]benzamide], the IC50 amounted to 118 nM in data set [2] and 11 nM in data set [3].

As for `COCC1(S(=O)(=O)Nc2cccc(Cc3cc(C(=O)NOC)c(Nc4ccc(I)cc4F)c(F)c3F)c2F)CC1` [E-3, 3,4-Difluoro-2-(2-fluoro-4-iodoanilino)-5-[[2-fluoro-3-[[1-(methoxymethyl)cyclopropyl]sulfonylamino]phenyl]methyl]-N-methoxybenzamide], the intrinsic clearance (microsomal CLint) at 0.99 µM in data set [4] was 149 µL/min/mg.

Regarding `CS(=O)(=O)Nc1cccc(Cc2cc(C(N)=O)c(Nc3ccc(I)cc3F)c(F)c2F)c1F` [E-13, 3,4-difluoro-2-(2-fluoro-4-iodoanilino)-5-[[2-fluoro-3-(methanesulfonamide)phenyl]methyl]benzamide], the microsomal CLint at 0.99 µM in data set [4] was 25 µL/min/mg.

For `CC1(S(=O)(=O)Nc2cccc(Cc3cc(C(N)=O)c(Nc4ccc(I)cc4F)c(F)c3F)c2F)CC1` [E-16, 3,4-Difluoro-2-(2-fluoro-4-iodoanilino)-5-[[2-fluoro-3-[(1-methylcyclopropyl)sulfonylamino]phenyl]methyl]benzamide], the “CLint” value in data set [4] is under 1 µL/min/mg.

For the molecule `CS(=O)(=O)Nc1cccc(Cc2cc(C(=O)NC3CC3)c(Nc3ccc(I)cc3F)c(F)c2F)c1F` [E-25, N-Cyclopropyl-3,4-difluoro-2-(2-fluoro-4-iodoanilino)-5-[[2-fluoro-3-(methanesulfonamide)phenyl]methyl]benzamide], the microsomal CLint at 0.99 µM in data set [4] was found to be 8 µL/min/mg.

Turning to `CNS(=O)(=O)Nc1nccc(Cc2cc(C(=O)NC3CC3)c(Nc3ccc(C4CC4)cc3F)c(F)c2F)c1F` [G-1, N-Cyclopropyl-2-(4-cyclopropyl-2-fluoroanilino)-3,4-difluoro-5-[[3-fluoro-2-(methylsulfamoylamino)pyridin-4-yl]methyl]benzamide], the results for the IC50 in data set [1], in data set [2] and in data set [3] were 21 nM, 65 nM and 6 nM, respectively.

In the case of `CNS(=O)(=O)Nc1nccc(Cc2cc(C(N)=O)c(Nc3ccc4sccc4c3F)c(F)c2F)c1F` [H-3, 3,4-difluoro-2-[(4-fluoro-1-benzothiophen-5-yl)amino]-5-[[3-fluoro-2-(methylsulfamoylamino)pyridin-4-yl]methyl]benzamide], the IC50 is 5 nM in data set [1] and 1 nM in data set [3].

Regarding `CNS(=O)(=O)Nc1nccc(Cc2cc(C(N)=O)c(Nc3ccc(C4CC4)cc3F)n(C)c2=O)c1F` [J-3, 2-(4-Cyclopropyl-2-fluoroanilino)-5-[[3-fluoro-2-(methylsulfamoylamino)pyridin-4-yl]methyl]-1-methyl-6-oxopyridine-3-carboxamide], the IC50 turned out to be 854 nM in data set [1], 972 nM in data set [2] and 123 nM in data set [3].

In data set [4], `CCS(=O)(=O)Nc1cccc(Cc2cc(C(=O)NOC(C)(C)C)c(Nc3ccc(I)cc3F)n(C)c2=O)c1F` [K-9, 5-[[3-(Ethylsulfonylamino)-2-fluorophenyl]methyl]-2-(2-fluoro-4-iodoanilino)-1-methyl-N-[(2-methylpropan-2-yl)oxy]-6-oxopyridine-3-carboxamide] came in with a microsomal CLint at 0.99 µM of 185 µL/min/mg.

For `CCS(=O)(=O)Nc1nccc(Cn2cc(C(N)=O)c(Nc3ccc(I)cc3F)c(C)c2=O)c1F` [P-2, 1-[[2-(ethylsulfonylamino)-3-fluoropyridin-4-yl]methyl]-4-(2-fluoro-4-iodoanilino)-5-methyl-6-oxopyridine-3-carboxamide], the IC50 was 337 nM in data set [2] and 109 nM in data set [3].

Regarding `CNS(=O)(=O)Nc1nccc(Cc2c(C)c3ccc(Oc4ncccn4)cc3oc2=O)c1F` [Ref-5, 3-[[3-Fluoro-2-(methylsulfamoylamino)pyridin-4-yl]methyl]-4-methyl-7-pyrimidin-2-yloxychromen-2-one, reference compound], in data set [4], the “CLint” value is under 1 µL/min/mg.
